Laboratory results published in patent publication US9765057B2, “3-ester-4 substituted orexin receptor antagonists” (MERCK SHARP & DOHME CORP., priority 2012, dated 2017).

Key:
human orexin-2 receptor = human orexin-2 receptor (Homo sapiens (Human), UniProt O43614); test: FLIPR Ca2+ Flux Assay, hOX2R; format: cell-based; settings: CHO cells expressing the human orexin-2 receptor; agonist 70 pM Ala-6,12 orexin-A
Protocol: In a typical experiment the OX1 and OX2 receptor antagonistic activity of the compounds of the present invention was determined in accordance with the following experimental method. For intracellular calcium measurements, Chinese hamster ovary (CHO) cells expressing the rat orexin-1 receptor or the human orexin-2 receptor, are grown in Iscove's modified DMEM containing 2 mM L-glutamine, […], 1% hypoxanthine-thymidine supplement, 100 U/ml penicillin, 100 μg/ml streptomycin and 10% heat-inactivated fetal calf serum (FCS). The cells are seeded at 20,000 cells/well into Becton-Dickinson black 384-well clear bottom sterile plates coated with poly-D-lysine. All reagents were from GIBCO-Invitrogen Corp. The seeded plates are incubated overnight at 37° C. and 5% CO2. Ala-6,12 human orexin-A as the agonist is prepared as a 1 mM stock solution in 1% bovine serum albumin (BSA) and diluted in assay buffer (HBSS containing 20 mM HEPES, 0.1% BSA and 2.5 mM probenecid, pH7.4) for use in the assay at a final concentration of 70 pM. Test compounds are prepared as 10 mM stock solution in DMSO, then diluted in 384-well plates, first in DMSO, then assay buffer. On the day of the assay, cells are washed 3 times with 100 μl assay buffer and then incubated for 60 min (37° C., 5% CO2) in 60 μl assay buffer containing 1 μM Fluo-4AM ester, 0.02% pluronic acid, and 1% BSA. The dye loading solution is then aspirated and cells are washed 3 times with 100 μl assay buffer. 30 μl of that same buffer is left in each well. Within the Fluorescent Imaging Plate Reader (FLIPR, Molecular Devices), test compounds are added to the plate in a volume of 25 μl, incubated for 5 min and finally 25 μl of agonist is added. Fluorescence is measured for each well at 1 second intervals for 5 minutes and the height of each fluorescence peak is compared to the height of the fluorescence peak induced by 70 pM Ala-6,12 orexin-A with buffer in place of antagonist. For each antagonist, IC50 value (the concentration of compound needed to inhibit 50% of the agonist response) is determined Alternatively, compound potency can be assessed by a radioligand binding assay (described in Bergman et. al. Bioorg. Med. Chem. Lett. 2008, 18, 1425-1430) in which the inhibition constant (Ki) is determined in membranes prepared from CHO cells expressing either the OX1 or OX2 receptor. The intrinsic orexin receptor antagonist activity of a compound which may be used in the present invention may be determined by these assays.

hOX1R = hOX1R (Homo sapiens, UniProt O43613); test: FLIPR Ca2+ Flux Assay, hOX1R; format: cell-based; settings: CHO cells expressing orexin-1 receptor; agonist 70 pM Ala-6,12 orexin-A

Chain of human orexin-2 receptor (O43614 whole entry): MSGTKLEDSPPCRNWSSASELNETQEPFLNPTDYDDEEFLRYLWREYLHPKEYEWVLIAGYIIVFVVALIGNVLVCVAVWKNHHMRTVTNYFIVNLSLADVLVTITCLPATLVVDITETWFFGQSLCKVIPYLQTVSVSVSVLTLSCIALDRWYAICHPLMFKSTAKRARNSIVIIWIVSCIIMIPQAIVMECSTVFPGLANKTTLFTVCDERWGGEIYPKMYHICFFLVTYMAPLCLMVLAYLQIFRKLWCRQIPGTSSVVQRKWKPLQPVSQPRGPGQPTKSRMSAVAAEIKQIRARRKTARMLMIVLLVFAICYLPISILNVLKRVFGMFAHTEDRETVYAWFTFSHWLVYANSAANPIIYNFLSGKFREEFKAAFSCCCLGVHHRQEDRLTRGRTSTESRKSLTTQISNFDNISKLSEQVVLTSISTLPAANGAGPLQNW

| Compound | IC50 (human orexin-2 receptor) | IC50 (hOX1R) |
| --- | --- | --- |
| COC(=O)c1c(SC)ccnc1O[C@@H]1CC[C@@H](C)N(C(=O)c2cc(F)ccc2-c2ncccn2)C1 [Example 5, methyl 2-({(3R,6R)-1-[(5-fluoro-2-pyrimidin-2-ylphenyl)carbonyl]-6-methylpiperidin-3-yl}oxy)-4-(methylsulfanyl)pyridine-3-carboxylate] | 72.9 nM | 880 nM |
| COC(=O)c1c(C2CCC2)ccnc1O[C@@H]1CC[C@@H](C)N(C(=O)c2ccccc2-n2nccn2)C1 [Example 14, methyl 4-cyclobutyl-2-{[(3R,6R)-6-methyl-1-{[2-(2H-1,2,3-triazol-2-yl)phenyl]carbonyl}piperidin-3-yl]oxy}pyridine-3-carboxylate] | 272 nM | 5580 nM |
| CCOC(=O)c1c(C)ccnc1O[C@@H]1CC[C@@H](C)N(C(=O)c2ccccc2-n2nccn2)C1 [Example 1, Ethyl 4-methyl-2-{[(3R,6R)-6-methyl-1-{[2-(2H-1,2,3-triazol-2-yl)phenyl]carbonyl}piperidin-3-yl]oxy}pyridine-3-carboxylate] | 8.3 nM | 79 nM |
| COC(=O)c1c(SC)ccnc1O[C@@H]1CC[C@@H](C)N(C(=O)c2ccccc2-n2nccn2)C1 [Example 3, methyl 4-(methylsulfanyl)-2-{[(3R,6R)-6-methyl-1-{[2-(2H-1,2,3-triazol-2-yl)phenyl]carbonyl}-piperidin-3-yl]oxy}pyridine-3-carboxylate] | 10 nM | 618 nM |
| COC(=O)c1c(C(C)C)ccnc1O[C@@H]1CC[C@@H](C)N(C(=O)c2ccccc2-n2nccn2)C1 [Example 12, methyl 4-(1-methylethyl)-2-{[(3R,6R)-6-methyl-1-{[2-(2H-1,2,3-triazol-2-yl)phenyl]carbonyl}-piperidin-3-yl]oxy}pyridine-3-carboxylate] | 5.46 nM | 80 nM |
| COC(=O)c1c(O[C@@H]2CC[C@@H](C)N(C(=O)c3ccccc3-n3nccn3)C2)cccc1C(C)C [Example 16, methyl 2-(1-methylethyl)-6-{[(3R,6R)-6-methyl-1-{[2-(2H-1,2,3-triazol-2-yl)phenyl]carbonyl}-piperidin-3-yl]oxy}benzoate] | 68.8 nM | 1460 nM |
| COC(=O)c1c(N2CCC2)ccnc1O[C@@H]1CC[C@@H](C)N(C(=O)c2ccccc2-n2nccn2)C1 [Example 8, Methyl 4-azetidin-1-yl-2-{[(3R,6R)-6-methyl-1-{[2-(2H-1,2,3-triazol-2-yl)phenyl]carbonyl}piperidin-3-yl]oxy}pyridine-3-carboxylate] | 33 nM | 743 nM |
| COC(=O)c1c(C)ccnc1O[C@@H]1CC[C@@H](C)N(C(=O)c2ccccc2-n2nccn2)C1 [Example 2, methyl 4-methy1-2-{[(3R,6R)-6-methyl-1-{[2-(2H-1,2,3-triazol-2-yl)phenyl]carbonyl}piperidin-3-yl]oxy}pyridine-3-carboxylate] | 17.4 nM | 86.2 nM |
| COC(=O)c1c(SC)ccnc1O[C@@H]1CC[C@@H](C)N(C(=O)c2cccc(F)c2-c2ncccn2)C1 [Example 7, methyl 2-({(3R,6R)-1-[(3-fluoro-2-pyrimidin-2-ylphenyl)carbonyl]-6-methylpiperidin-3-yl}oxy)-4-(methylsulfanyl)pyridine-3-carboxylate] | 37.8 nM | 1030 nM |
| CCOC(=O)c1c(CC)ccnc1O[C@@H]1CC[C@@H](C)N(C(=O)c2ccccc2-n2nccn2)C1 [Example 17, Ethyl 4-ethyl-2-{[(3R,6R)-6-methyl-1-{[2-(2H-1,2,3-triazol-2-yl)phenyl]carbonyl}piperidin-3-yl]oxy}pyridine-3-carboxylate] | 40.4 nM | 172 nM |
| COC(=O)c1c(C(C)(C)C)ccnc1O[C@@H]1CC[C@@H](C)N(C(=O)c2ccccc2-n2nccn2)C1 [Example 11] | 1010 nM | 2050 nM |
| COC(=O)c1c(SC)ccnc1O[C@@H]1CC[C@@H](C)N(C(=O)c2ccc(F)cc2-c2ncccn2)C1 [Example 6, methyl 2-({(3R,6R)-1-[(4-fluoro-2-pyrimidin-2-ylphenyl)carbonyl]-6-methylpiperidin-3-yl}oxy)-4-(methylsulfanyl)pyridine-3-carboxylate] | 31.6 nM | 888 nM |
| COC(=O)c1c(C)cccc1O[C@@H]1CC[C@@H](C)N(C(=O)c2ccccc2-n2nccn2)C1 [Example 15, methyl 2-methyl-6-{[(3R,6R)-6-methyl-1-{[2-(2H-1,2,3-triazol-2-yl)phenyl]carbonyl}piperidin-3-yl]oxy}benzoate] | 36.2 nM | 1930 nM |
| COC(=O)c1c(SC)ccnc1O[C@@H]1CC[C@@H](C)N(C(=O)c2ccccc2-c2ncccn2)C1 [Example 4, Methyl 2-({(3R,6R)-6-methyl-1-{(2-pyrimidin-2ylphenyl)carbonyl}piperidin-3yl}oxy)-4-(methylsulfanyl)pyridine-3-carboxylate] | 28.3 nM | 554 nM |
| CCc1ccnc(O[C@@H]2CC[C@@H](C)N(C(=O)c3ccccc3-n3nccn3)C2)c1C(=O)OC [Example 10, Methyl 4-ethyl-2-{[(3R,6R)-6-methyl-1-{[2-(2H-1,2,3-triazol-2-yl)phenyl]carbonyl}piperidin-3-yl]oxy}pyridine-3-carboxylate] | 21.1 nM | 74.9 nM |
| COC(=O)c1c(N2CCN(C)CC2)ccnc1O[C@@H]1CC[C@@H](C)N(C(=O)c2ccccc2-n2nccn2)C1 [Example 9, methyl 4-(4-methylpiperazin-1-yl)-2-{[(3R,6R)-6-methyl-1-{[2-(2H-1,2,3-triazol-2-yl)phenyl]carbonyl}-piperidin-3-yl]oxy}pyridine-3-carboxylate] | 1530 nM | 10000 nM |
| COC(=O)c1c(C2CC2)ccnc1O[C@@H]1CC[C@@H](C)N(C(=O)c2ccccc2-n2nccn2)C1 [Example 13, methyl 4-cyclopropyl-2-{[(3R,6R)-6-methyl-1-{[2-(2H-1,2,3-triazol-2-yl)phenyl]carbonyl}piperidin-3-yl]oxy}pyridine-3-carboxylate] | 530 nM | 803 nM |
